Assay [1] addresses T1, human MutSbeta (Homo sapiens, UniProt P20585+P43246).
T1 construct: Msh2(1-934), Gene ID NP_000242.1; Msh3(1-1137), Gene ID J04810.1
The assay can be described thus: ADP Glo assay 2.1. In kind it is biochemical. The conditions noted are these: 10 μM ATP, 7 nM enzyme; buffer with 5 mM GSH, 0.2% Ovalbumin. As to the method: (§1) ADP Glo assay 2.1: Enzyme human MutSbeta (Msh2(1-934), Gene ID NP_000242.1, Msh3(1-1137), Gene ID J04810.1) with 22 bp biotin-labeled DNA containing a GT-mismatch (purchased from Curia Global, TOP 5′-[…]-3′; BOT 3′-AGTAGCTAGGC - - - CGAAGTCTACC-5′-Biotin) was pre-incubated in assay buffer (25 mM HEPES pH=7.5, 150 mM KCl, 5 mM MgCl2, 5 mM GSH, 0.1% Pluronic F-127, 0.2% Ovalbumin) to allow formation of the enzyme-DNA complex. Plates with spotted compounds in serial dilutions in DMSO (80 nL) were filled with ATP (2 μL, 10 μM final concentration) followed by an incubation of 30 min at RT. Then, enzyme was added (2 μL, 7 nM final concentration) and the reaction was allowed to proceed for 60 min at 37° C. After the ATPase reaction, the commercially available “ADP-Glo Reagent” was added (incubate 40 min at RT) to deplete remaining ATP via the activity of […]. Subsequently, the commercially available “Kinase Detection Reagent” converted ADP to ATP via the activity of PEP and Pyruvate kinase. The ATP was then converted into light by Ultra-Glo Luciferase. The obtained luminescence was proportional to the ADP concentration generated during the initial ATPase reaction. The luminescence signal was measured with an Envision reader, raw data were analyzed towards controls (full reaction=0% inhibition; no reaction in absence of enzyme=100% inhibition) and IC50 curves were analyzed with the inhouse software Aplus.

The target in assay [2] is T1, human MutSbeta. The assay can be described thus: ADP Glo assay 1.1. In kind it is biochemical. As to conditions: SPA buffer, no Ovalbumin; enzyme added to compounds before ATP; read-out: ADP Gol 1.1 assay IC50. As to the method:
as §1
ADP Glo assay 1.1: The ADP Glo 2.1 assay was adapted to enable assessment of a more direct interaction of the compound with the enzyme: (1) the SPA buffer was applied (25 mM HEPES pH=7.5, 150 mM KCl, 2 mM MgCl2, 2 mM GSH, 0.01% Tween-20) which contained no decoy Ovalbumin protein. (2) The order of reagent addition was changed, and enzyme was now added directly to the spotted compounds before addition of ATP.

A short description of assay [3]: P33 SPA counter assay (absence of enzyme). The conditions noted are these: interference with detection system. On the procedure: P33 SPA counter assay: This assay was used in the absence of enzyme to determine whether the test compound interferes with the detection system. Otherwise, the same protocol and assay buffer as in the main SPA assay were applied (25 mM HEPES pH=7.5, 150 mM KCl, 2 mM MgCl2, 2 mM GSH, 0.01% Tween-20) and instead of enzyme addition, assay buffer was added. Hydrolysis of substrate (γ-[^33P]-ATP, 0.1 nM; Hartmann Analytic, FF-301; and cold ATP, 10 μM) to a similar level as under enzymatic conditions was achieved by incubation at 50° C. for 4 days. Decay of [^33P] with a half-life of 25.4 days was corrected by increasing the concentration of the labelled nucleotide with the appropriate factor; all steps with radioactive ATP were conducted behind appropriate shielding. After addition of pre-treated ATP substrate (10 μL) to the compounds and addition of buffer (10 μL, instead of enzyme), 20 μL of a 1:2 mix of ammonium molybdate (20 mg/mL Ammonium molybdate in 2.4M HCl) and SPA beads (ProteinA SPA beads from Perkin Elmer Cat #RPNQ0019 at 7.5 mg/mL+1% azide) was added per well and incubated at RT for 2 min. Then, 40 μL of 7 M CsCl and 0.1 M citrate was added per well and incubated for 1 h at room temperature before measuring on the MicroBeta (top read mode, 1 min per well). For full plate processing, all reagents were transferred with a pipettor (Selma, CyBio) apart from the final reagent (CsCl+citrate) which was added with a dispenser (MultiFlo, BioTek). Data analysis during assay development was done with Prism GraphPad, and IC50 fitting for whole compound plates was done with the in-house software Aplus.

For assay [4], the target named is T1, human MutSbeta. The assay can be described thus: P33 SPA 1.1. In kind it is biochemical. The conditions noted are these: Table 5A; enzyme first added to compounds, then ATP. As to the method: (§2) P33 SPA: Enzyme human MutSbeta (Msh2(1-934), Gene ID NP_000242.1, Msh3(1-1137), Gene ID J04810.1) and 22 bp biotin-labeled DNA containing a GT-mismatch (purchased from Curia Global, TOP 5′-[…]-3′; BOT 3′-AGTAGCTAGGC - - - CGAAGTCTACC-5′-Biotin) were pre-incubated at equimolar concentration for 15 min at room temperature (“RT”) in assay buffer (25 mM HEPES pH=7.5, 150 mM KCl, 2 mM MgCl2, 2 mM GSH, 0.01% Tween-20). ATP (10 μL, 2× final concentration of γ-[^33P]-ATP (final 0.1 nM; Hartmann Analytic, FF-301) and cold ATP (final 2 μM)) was added to compounds (400 nL spotted as concentration response in 100% DMSO into wells of an OptiPlate) and pre-incubated for 30 min at RT. Then, enzyme with DNA was added (10 μL, 2× final concentration of 7 nM) and incubated for 60 min at 37° C. in a total volume of 20 μL per well. Decay of [^33P] with a half-life of 25.4 days was corrected by increasing the concentration of the labelled nucleotide with the appropriate factor; all steps with radioactive ATP were conducted behind appropriate shielding. Then, 20 μL of a 1:2 mix of ammonium molybdate (20 mg/mL Ammonium molybdate in 2.4 M HCl) and SPA beads (ProteinA SPA beads from Perkin Elmer Cat #RPNQ0019 at 7.5 mg/mL+1% azide) was added per well and incubated at RT for 2 min. Then, 40 μL of 7 M CsCl and 0.1 M citrate was added per well and incubated for 20 h at RT before measuring on the MicroBeta (top read mode, 1 min per well). For full plate processing, all reagents were transferred with a pipettor (Selma, CyBio) apart from the final reagent (CsCl+citrate) which was added with a dispenser (MultiFlo, BioTek). Data analysis during assay development was done with Prism GraphPad.
P33 SPA 11: For the SPA 1.1 assay, the addition of reagents was reversed, i.e. enzyme was first added to the compounds and pre-incubated followed by ATP addition; thus, the assay was aligned with ADP Glo 1.1 reagent addition order. The assay was repeated under similar conditions, and the results are shown below in Table 5B. It is contemplated the solubility of the compounds and/or varying test occasions may account for variability of assay results.

The next assay addresses T2, human MutSα (Homo sapiens, UniProt P43246+P52701).
T2 construct: Msh2(1-934), Gene ID NP_000242.1; Msh6(1-1360), Gene ID NP_001393725.1
The assay can be described thus: ADP Glo assay with MutSα (2.1). In kind it is biochemical. As to conditions: 15 nM MutSα/DNA, 30 μM ATP. On the procedure: as §1
ADP Glo assay with MutSα (2.1): The ADP Glo assay version 2.1 with the enzyme human MutSα (Msh2(1-934), Gene ID NP_000242.1, Msh6(1-1360), Gene ID NP_001393725.1) was based on the same principle and protocol steps as the MutSβ assay. A 22 bp biotin-labeled DNA containing a GT-mismatch (purchased from Curia Global, TOP 5′-[…]-3′; BOT 3′-AGTAGCTAGGC - - - CGAAGTCTACC-5′-Biotin) was used for binding to MutSα. For this assay, concentrations of enzyme and ATP were optimized to 15 nM MutSα/DNA and 30 μM ATP.

Assay [5] addresses T1, human MutSbeta. The assay can be described thus: P33 SPA. In kind it is biochemical. The conditions noted are these: ATP added to compounds first, then enzyme with DNA; 2 μM ATP, 7 nM enzyme, 60 min 37° C. As to the method:
as §2

The record followed here is patent publication US20240199624A1, “COMPOUNDS, COMPOSITIONS, AND METHODS” (CHDI Foundation, Inc., priority 2022, published 2024).

Structures are written as SMILES.

T2 sequence (P43246 whole entry): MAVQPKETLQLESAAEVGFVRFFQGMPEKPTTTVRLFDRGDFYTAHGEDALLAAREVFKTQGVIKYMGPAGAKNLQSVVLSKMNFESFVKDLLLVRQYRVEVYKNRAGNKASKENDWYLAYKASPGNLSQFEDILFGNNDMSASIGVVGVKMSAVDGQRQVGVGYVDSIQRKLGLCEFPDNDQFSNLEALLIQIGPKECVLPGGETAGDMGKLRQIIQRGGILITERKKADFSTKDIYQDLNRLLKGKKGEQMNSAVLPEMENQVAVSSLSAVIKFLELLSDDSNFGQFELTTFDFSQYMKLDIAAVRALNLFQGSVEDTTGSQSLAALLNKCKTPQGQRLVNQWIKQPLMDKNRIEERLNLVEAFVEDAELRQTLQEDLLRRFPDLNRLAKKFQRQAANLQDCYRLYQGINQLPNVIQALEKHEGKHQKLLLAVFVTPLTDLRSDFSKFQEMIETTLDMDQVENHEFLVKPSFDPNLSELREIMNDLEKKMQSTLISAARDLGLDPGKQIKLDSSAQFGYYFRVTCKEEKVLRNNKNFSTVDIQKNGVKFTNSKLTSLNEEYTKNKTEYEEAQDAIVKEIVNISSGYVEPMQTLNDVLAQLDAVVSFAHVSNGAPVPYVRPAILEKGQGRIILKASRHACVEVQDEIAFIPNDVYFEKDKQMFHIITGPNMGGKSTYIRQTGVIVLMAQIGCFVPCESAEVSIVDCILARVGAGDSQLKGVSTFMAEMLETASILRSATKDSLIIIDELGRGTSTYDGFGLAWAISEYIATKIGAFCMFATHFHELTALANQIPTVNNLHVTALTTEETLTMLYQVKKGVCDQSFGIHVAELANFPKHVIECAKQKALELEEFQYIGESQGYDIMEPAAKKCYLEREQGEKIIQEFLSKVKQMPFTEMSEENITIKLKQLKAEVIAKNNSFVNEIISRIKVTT
T2 sequence (P52701 whole entry): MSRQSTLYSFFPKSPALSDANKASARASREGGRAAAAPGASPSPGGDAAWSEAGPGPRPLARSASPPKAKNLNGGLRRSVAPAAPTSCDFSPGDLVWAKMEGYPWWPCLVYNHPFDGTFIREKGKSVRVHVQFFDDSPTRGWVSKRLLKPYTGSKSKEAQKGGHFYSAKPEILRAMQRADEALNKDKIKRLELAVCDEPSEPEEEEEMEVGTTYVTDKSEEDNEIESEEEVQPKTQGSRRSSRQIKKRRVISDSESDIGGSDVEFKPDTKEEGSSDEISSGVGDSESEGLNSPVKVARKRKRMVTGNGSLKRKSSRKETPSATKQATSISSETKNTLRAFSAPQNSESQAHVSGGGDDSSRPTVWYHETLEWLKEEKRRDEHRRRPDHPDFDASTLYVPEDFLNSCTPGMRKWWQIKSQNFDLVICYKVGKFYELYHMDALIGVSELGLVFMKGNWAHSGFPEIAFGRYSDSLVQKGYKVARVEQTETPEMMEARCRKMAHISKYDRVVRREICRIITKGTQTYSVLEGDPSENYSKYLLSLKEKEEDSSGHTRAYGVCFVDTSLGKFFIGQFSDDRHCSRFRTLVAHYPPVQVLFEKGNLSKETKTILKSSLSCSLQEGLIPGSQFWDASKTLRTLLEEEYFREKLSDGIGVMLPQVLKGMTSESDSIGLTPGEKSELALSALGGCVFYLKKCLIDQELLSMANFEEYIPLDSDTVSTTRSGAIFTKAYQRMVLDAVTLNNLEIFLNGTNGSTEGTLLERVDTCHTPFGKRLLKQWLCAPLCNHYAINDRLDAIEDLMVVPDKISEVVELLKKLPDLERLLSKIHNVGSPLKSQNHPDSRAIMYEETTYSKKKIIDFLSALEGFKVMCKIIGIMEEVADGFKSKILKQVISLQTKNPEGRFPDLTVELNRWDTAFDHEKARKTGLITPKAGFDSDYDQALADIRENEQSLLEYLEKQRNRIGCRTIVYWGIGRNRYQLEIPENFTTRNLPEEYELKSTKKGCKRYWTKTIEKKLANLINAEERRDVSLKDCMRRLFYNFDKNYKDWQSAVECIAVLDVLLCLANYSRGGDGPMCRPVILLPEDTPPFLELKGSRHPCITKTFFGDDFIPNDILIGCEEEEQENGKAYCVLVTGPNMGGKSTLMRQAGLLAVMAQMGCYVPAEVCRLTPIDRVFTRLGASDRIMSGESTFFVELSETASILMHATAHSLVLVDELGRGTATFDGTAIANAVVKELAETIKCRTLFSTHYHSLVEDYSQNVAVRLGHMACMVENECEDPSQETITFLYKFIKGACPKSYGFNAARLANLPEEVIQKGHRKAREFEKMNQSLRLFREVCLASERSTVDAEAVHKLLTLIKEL
T1 sequence (P43246 whole entry): as the sequence (P43246 whole entry) above
T1 sequence (P20585 whole entry): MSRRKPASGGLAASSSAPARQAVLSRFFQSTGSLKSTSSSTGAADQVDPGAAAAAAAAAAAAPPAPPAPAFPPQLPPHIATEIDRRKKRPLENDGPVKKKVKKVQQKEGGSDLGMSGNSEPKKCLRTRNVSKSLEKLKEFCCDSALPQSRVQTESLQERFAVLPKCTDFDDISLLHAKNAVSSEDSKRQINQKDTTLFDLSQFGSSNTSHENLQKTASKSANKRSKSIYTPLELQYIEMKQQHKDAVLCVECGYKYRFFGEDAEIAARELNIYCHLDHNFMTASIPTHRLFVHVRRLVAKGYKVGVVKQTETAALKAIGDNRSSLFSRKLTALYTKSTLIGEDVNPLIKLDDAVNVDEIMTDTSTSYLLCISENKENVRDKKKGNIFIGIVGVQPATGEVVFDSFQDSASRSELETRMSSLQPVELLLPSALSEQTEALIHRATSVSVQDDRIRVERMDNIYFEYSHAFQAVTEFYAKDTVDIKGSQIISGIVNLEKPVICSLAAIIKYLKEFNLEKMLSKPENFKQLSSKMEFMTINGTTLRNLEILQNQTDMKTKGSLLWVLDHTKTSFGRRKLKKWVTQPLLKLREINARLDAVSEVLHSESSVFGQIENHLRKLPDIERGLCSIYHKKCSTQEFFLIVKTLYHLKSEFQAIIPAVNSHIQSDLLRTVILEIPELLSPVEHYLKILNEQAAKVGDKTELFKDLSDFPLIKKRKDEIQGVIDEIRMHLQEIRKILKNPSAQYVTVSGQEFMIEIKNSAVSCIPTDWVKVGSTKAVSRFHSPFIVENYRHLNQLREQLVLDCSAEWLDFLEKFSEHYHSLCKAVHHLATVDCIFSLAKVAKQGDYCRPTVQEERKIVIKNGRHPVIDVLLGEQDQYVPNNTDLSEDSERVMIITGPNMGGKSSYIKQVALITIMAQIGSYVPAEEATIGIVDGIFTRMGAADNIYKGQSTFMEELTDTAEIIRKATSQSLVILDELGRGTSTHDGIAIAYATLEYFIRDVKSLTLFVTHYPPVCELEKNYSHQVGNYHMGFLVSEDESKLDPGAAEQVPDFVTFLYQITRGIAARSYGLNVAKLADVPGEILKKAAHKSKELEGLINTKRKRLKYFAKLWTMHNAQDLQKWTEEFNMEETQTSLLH

With `CCN1CCN(c2nc(Nc3ccc(F)c(F)c3)c3nccnc3n2)CC1` [Compound 16, N-(3,4-difluorophenyl)-2-(4-ethylpiperazin-1-yl)pteridin-4-amine], the IC50 on human MutSbeta [1] was greater than 200 µM; at human MutSbeta [2] it was greater than 200 µM; in assay [3] it was greater than 200 µM; at human MutSbeta [4] it was greater than 200 µM; at human MutSα, 42.7 µM; against human MutSbeta [5], 122 µM.
Take `CCN1CCN(c2nc(Nc3ccc(F)c(C)c3)c3nccnc3n2)CC1` [Compound 3, 2-(4-ethylpiperazin-1-yl)-N-(4-fluoro-3-methyl-phenyl)pteridin-4-amine]: the IC50 against human MutSbeta [1] is 32.6 µM; on human MutSbeta [2] it was 42.5 µM; against human MutSbeta [4], 24.5 µM; at human MutSα, 42.3 µM; against human MutSbeta [5], 20.8 µM.
On to `CN1CCN(c2nc(NCc3ccccc3)c3nccnc3n2)CC1` [Compound 5, N-benzyl-2-(4-methylpiperazin-1-yl)pteridin-4-amine], for which the IC50 at human MutSbeta [1] was 148 µM; at human MutSbeta [2], 63.4 µM; in assay [3] it was greater than 200 µM; against human MutSbeta [4], 44.8 µM; at human MutSα, greater than 200 µM; on human MutSbeta [5], 31 µM.
Turning to `Cc1cccc(Nc2nc(N3CCN(C)CC3)nc3nccnc23)c1` [Compound 6, 2-(4-methylpiperazin-1-yl)-N-(m-tolyl)pteridin-4-amine], the IC50 was 47.1 µM at human MutSbeta [1]; 82.1 µM at human MutSbeta [2]; greater than 200 µM in assay [3]; 41.5 µM against human MutSbeta [4]; 26.2 µM against human MutSbeta [5].
For the molecule `Cc1ccc(Nc2nc(N3CCN(C)CC3)nc3nccnc23)cc1Cl` [Compound 20, N-(3-chloro-4-methyl-phenyl)-2-(4-methylpiperazin-1-yl)pteridin-4-amine], the concentration for half-maximal inhibition (IC50) at human MutSbeta [1] is 140 µM; on human MutSbeta [2], 109 µM; in assay [3], greater than 200 µM; at human MutSbeta [4] it was 43.4 µM; on human MutSα, 26.9 µM; against human MutSbeta [5], 12.9 µM.
